These are literature values, as cited in US10881750B2, “Sentinel lymph node marker capable of multi-mode imaging” (NATIONAL CANCER CENTER, priority 2010, dated 2021).

For the data set the following is noted: 18 breast cancer patients, clinical trials (Kitai et al., Breast Cancer 2005).

SMILES strings stand for the structures.

Regarding `CC1(C)C(/C=C/C=C/C=C/C=C2\N(CCCCS(=O)(=O)O)c3ccc4ccccc4c3C2(C)C)=[N+](CCCCS(=O)(=O)[O-])c2ccc3ccccc3c21` [indocyanine green], the “safety in clinical use” value is “safe to use”.
